# From patent US11274106B2, “Topoisomerase inhibitors with antibacterial and anticancer activity” (THE BOARD OF TRUSTEES OF THE UNIVERSITY OF ILLINOIS, priority 2017, dated 2022)
# Tests used:
# E. coli = test: Antibacterial MIC, microbroth dilution, E. coli; assay type: cell-based
# Method: (§1) To investigate this possibility, the antibacterial effects of the DNM derivatives was assessed against strains of E. coli, S. aureus, and MRSA using the microbroth dilution method (Table 2).
# S. aureus = test: Antibacterial MIC, microbroth dilution, S. aureus; assay type: cell-based
# Method: as §1
# MRSA = test: Antibacterial MIC, microbroth dilution, MRSA; assay type: cell-based, S. aureus; conditions: Staphylococcus aureus, MRSA; microbroth dilution
# Method: as §1
# HeLa = test: Antiproliferative SRB assay, HeLa; assay type: cell-based; conditions: Homo sapiens, 72 h, Ovarian cancer (footnote e), mean ± SEM
# Description: (§2) Topoisomerase inhibitors such as DOX are used as single agent and in combination therapy to treat a wide-range of cancer types.
# ES-2 = test: Antiproliferative SRB assay, ES-2; assay type: cell-based; conditions: Homo sapiens, ES-2, 72 h, Cervical cancer (footnote f), mean ± SEM
# Description: as §2
# E. coli DNA Gyrase = E. coli DNA Gyrase (Escherichia coli, UniProt P0AES4+P0AES6); test: E. coli DNA Gyrase supercoiling assay; assay type: biochemical
# Description: (§3) FIG. 8. In vitro inhibitory activity of 6DNM-NH3, Ph-6DNM-NH3 against E. coli DNA gyrase and TopoIV.
# (§4) DNM and its derivatives exert their antibacterial effects through inhibition of the DNA Gyrase.
# E. coli TopoIV = E. coli TopoIV (Escherichia coli, UniProt P0AFI2+P20083); test: E. coli TopoIV decatenation assay; assay type: biochemical
# Description: as §3, §4
# Top2cc = target: T1, Top2cc (Homo sapiens, UniProt P11388); test: ICE assay for Top2α-DNA complexes in H460 cells; assay type: cell-based; conditions: for Accumulation of Top2cc (ICE assay): 50 μM; for Effect on ETP-induced Top2cc: pre-treatment 30 minutes prior to ETP (50 μM)
# T1 construct: endogenous in cells; host or cells: H460
# Description: (§5) FIG. 3. DNM derivatives are dual Top1/Top2 inhibitors with different modes of inhibition. (a) Inhibition of decatenating ability of Top2α with increasing concentrations of ETP, 6DNM-NH3, 6DNM-Pyr, and Ph-6DNM-NH3. K, kinetoplast DNA; OC, open circular; R, relaxed. (b) Inhibition of relaxing ability of Top1 with increasing concentrations of CPT, 6DNM-NH3, 6DNM-Pyr, and Ph-6DNM-NH3. R, relaxed; S, supercoiled. (c) Detection of Top2a-DNA using the ICE Assay. Genomic DNA ([…]) of H460 cells treated with drugs (50 μM, 30 min) was applied to nitrocellulose membrane and immunoblotted for Top2a. (d) Detection of Top1-DNA adducts using ICE Assay. Same procedure as (c) using 1 μg of DNA. (e) Inhibition of ETP-induced poisoning of Top2a. H460 cells treated with indicated concentrations of inhibitor for 30 min prior to treatment with ETP (50 μM). Detection of Top2α as in (c).
# (§6) The in vivo complex of enzyme (ICE) assay can be used to distinguish poisons from catalytic inhibitors. The ICE assay consists of isolating the genomic DNA of cells treated with small molecules in a manner the preserves covalent DNA-protein complexes and applying it to nitrocellulose membranes. Because topoisomerase poisons stabilize the cleavage complexes, DNA-protein complexes can be detected by immunoblotting for specific topoisomerases, whereas catalytic inhibitors produce no such result. To determine if DNM derivatives are acting as poisons or catalytic inhibitors, H460 human lung cells were exposed to 50 μM of the Top2 poison ETP, Ph-6DNM-NH3, 6DNM-NH3, and 6DNM-Pyr and assessed for their ability to stabilize Top2cc. […] In a similar fashion, next investigated was the mode of Top1 inhibition using the ICE assay (FIG. 3b).
# Top1cc = target: T2, Top1cc (Homo sapiens, UniProt P11387); test: ICE assay for Top1-DNA adducts in H460 cells; assay type: cell-based; conditions: for Accumulation of Top1cc (ICE assay): H460 cells, 50 μM, 30 min; for Mode of topoisomerase inhibition: in vitro and cell culture experiments taken together
# T2 construct: endogenous in cells; host or cells: H460
# T2 sequence (P11387 2-765 limits assumed): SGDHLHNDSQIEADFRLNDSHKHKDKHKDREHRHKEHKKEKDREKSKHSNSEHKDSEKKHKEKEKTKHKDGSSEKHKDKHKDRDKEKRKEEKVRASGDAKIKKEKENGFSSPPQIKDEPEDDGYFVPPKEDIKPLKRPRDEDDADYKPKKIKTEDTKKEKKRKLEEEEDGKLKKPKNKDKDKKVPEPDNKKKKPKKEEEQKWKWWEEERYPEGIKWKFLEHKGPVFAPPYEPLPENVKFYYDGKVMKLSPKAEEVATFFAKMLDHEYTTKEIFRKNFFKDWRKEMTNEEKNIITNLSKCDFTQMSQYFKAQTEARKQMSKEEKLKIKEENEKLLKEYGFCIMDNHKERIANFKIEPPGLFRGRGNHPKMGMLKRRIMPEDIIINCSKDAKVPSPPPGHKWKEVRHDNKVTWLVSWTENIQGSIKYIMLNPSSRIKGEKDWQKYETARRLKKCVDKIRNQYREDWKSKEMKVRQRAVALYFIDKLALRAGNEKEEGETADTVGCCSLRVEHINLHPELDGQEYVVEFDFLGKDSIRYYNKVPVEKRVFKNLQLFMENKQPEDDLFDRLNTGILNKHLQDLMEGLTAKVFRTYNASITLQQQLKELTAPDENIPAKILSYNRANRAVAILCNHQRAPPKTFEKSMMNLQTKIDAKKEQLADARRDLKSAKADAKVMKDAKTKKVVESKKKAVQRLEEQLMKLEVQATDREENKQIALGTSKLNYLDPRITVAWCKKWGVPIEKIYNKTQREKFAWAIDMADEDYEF
# Description: as §5, §6
# T1 sequence (P11388 whole entry): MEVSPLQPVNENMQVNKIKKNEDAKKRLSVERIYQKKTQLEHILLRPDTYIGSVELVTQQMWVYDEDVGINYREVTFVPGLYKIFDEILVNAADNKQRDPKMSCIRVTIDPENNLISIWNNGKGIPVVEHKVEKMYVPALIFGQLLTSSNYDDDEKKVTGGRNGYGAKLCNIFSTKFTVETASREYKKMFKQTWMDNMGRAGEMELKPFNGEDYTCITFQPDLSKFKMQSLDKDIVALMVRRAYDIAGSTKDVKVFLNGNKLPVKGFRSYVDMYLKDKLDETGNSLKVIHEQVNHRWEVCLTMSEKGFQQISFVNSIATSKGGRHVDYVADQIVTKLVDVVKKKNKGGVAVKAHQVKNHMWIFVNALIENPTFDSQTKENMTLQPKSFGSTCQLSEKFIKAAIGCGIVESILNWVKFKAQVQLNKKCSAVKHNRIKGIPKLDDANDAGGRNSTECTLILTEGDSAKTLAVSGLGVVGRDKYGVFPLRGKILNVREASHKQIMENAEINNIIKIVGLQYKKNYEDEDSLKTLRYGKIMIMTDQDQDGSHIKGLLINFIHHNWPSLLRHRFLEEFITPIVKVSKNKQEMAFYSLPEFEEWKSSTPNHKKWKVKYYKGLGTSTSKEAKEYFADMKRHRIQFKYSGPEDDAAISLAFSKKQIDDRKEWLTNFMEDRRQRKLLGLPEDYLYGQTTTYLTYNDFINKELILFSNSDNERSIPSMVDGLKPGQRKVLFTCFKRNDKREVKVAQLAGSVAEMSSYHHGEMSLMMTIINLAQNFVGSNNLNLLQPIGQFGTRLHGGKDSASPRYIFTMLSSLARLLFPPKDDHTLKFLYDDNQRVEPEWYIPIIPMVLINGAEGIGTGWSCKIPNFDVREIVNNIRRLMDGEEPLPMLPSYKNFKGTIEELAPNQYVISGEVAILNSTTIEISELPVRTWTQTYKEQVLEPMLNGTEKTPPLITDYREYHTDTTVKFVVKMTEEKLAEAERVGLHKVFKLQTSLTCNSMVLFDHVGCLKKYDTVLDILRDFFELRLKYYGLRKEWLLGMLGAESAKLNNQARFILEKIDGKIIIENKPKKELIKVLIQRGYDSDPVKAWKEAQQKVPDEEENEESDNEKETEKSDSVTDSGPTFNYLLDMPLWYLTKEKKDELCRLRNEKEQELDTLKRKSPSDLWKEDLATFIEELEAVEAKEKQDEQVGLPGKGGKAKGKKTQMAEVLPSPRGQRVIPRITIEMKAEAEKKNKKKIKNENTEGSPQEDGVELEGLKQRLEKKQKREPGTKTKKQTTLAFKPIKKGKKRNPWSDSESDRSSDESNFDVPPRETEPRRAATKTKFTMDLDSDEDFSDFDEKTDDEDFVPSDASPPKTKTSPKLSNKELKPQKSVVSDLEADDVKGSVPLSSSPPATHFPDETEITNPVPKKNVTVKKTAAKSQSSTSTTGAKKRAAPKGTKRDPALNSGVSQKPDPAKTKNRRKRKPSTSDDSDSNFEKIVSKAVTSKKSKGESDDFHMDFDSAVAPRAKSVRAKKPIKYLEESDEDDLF
# Sequence of E. coli TopoIV (P0AFI2 whole entry): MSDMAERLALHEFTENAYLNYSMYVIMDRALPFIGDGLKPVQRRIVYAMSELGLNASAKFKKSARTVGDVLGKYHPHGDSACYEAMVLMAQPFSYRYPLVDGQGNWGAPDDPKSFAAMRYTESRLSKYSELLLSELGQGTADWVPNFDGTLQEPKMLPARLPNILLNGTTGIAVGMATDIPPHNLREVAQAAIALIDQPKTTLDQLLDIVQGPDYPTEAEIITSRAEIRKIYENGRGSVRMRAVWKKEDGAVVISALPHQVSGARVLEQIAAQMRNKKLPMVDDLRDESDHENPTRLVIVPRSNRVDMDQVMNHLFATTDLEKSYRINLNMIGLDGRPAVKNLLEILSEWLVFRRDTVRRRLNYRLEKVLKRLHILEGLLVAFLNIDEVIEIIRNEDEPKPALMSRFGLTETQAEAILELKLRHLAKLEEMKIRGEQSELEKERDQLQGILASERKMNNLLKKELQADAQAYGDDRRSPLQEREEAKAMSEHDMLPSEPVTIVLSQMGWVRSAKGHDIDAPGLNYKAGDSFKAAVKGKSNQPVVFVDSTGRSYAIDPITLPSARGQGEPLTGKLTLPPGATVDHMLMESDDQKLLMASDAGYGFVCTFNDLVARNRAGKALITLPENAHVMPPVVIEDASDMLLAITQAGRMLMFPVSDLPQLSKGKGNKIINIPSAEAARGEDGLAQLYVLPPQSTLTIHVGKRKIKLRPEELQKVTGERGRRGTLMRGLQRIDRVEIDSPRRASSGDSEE
# Sequence of E. coli TopoIV (P20083 whole entry): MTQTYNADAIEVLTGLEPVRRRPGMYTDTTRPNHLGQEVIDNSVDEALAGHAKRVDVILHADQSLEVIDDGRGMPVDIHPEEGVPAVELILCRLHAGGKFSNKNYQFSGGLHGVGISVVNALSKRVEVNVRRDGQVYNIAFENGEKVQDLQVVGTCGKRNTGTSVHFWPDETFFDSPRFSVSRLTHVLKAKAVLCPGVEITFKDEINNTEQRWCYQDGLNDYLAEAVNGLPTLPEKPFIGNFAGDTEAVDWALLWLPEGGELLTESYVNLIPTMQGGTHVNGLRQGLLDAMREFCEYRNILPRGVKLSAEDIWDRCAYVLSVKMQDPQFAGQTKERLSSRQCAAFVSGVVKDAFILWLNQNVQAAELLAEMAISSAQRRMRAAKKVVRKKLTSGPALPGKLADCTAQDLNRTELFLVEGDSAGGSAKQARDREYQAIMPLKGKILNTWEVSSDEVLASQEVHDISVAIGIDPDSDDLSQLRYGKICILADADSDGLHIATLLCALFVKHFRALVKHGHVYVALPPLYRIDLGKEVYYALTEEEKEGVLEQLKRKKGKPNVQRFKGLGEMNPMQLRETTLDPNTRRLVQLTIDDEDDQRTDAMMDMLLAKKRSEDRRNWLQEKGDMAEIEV
# Sequence of E. coli DNA Gyrase (P0AES4 whole entry, one chain of several): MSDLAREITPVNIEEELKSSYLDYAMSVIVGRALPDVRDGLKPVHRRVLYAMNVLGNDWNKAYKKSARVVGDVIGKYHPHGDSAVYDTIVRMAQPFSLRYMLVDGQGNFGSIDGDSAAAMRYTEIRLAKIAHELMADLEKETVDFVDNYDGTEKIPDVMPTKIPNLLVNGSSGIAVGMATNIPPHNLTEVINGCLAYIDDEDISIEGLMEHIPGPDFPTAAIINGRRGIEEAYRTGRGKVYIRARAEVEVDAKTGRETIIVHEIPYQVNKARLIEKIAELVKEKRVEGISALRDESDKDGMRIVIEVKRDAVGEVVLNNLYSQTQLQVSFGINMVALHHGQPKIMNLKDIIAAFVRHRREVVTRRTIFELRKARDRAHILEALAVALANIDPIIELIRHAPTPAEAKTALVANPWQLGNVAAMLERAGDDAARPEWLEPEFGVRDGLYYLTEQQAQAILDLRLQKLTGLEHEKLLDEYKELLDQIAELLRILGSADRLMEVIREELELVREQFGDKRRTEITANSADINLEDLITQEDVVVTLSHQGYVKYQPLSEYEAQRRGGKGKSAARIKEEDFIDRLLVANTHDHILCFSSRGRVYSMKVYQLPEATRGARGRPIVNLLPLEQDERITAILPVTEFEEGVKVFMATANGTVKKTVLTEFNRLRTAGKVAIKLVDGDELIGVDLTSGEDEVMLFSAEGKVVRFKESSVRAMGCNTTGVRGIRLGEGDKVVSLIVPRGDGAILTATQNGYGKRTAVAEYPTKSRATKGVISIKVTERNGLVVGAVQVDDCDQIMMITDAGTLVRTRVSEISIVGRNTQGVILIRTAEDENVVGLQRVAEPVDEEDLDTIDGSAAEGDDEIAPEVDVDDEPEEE
SMILES,E. coli MIC (E. coli) [µg/mL],S. aureus MIC (S. aureus) [µg/mL],MIC (MRSA) [µg/mL],IC50 (HeLa) [nM],IC50 (ES-2) [nM],Inhibition of purified E. coli DNA Gyrase (E. coli DNA Gyrase),Inhibition of purified E. coli TopoIV (E. coli TopoIV),Accumulation of Top2cc (ICE assay) (Top2cc),Effect on ETP-induced Top2cc (Top2cc),Accumulation of Top1cc (ICE assay) (Top1cc),Mode of topoisomerase inhibition (Top1cc),MIC (E. coli; Escherichia coli) [µg/mL],MIC (S. aureus; Staphylococcus aureus) [µg/mL]
Cc1cc(=O)n2c3c(c4c(cc13)c1ccccc1c(=O)n4C)OCC2CN (stereo not shown) [Compound 15],0.25,1,1,56 ± 5,28 ± 6,able to inhibit,able to inhibit,only ETP treatment resulted in the accumulation of Top2cc,dose-dependent decrease in ETP-induced Top2cc,leads to the accumulation of Top1cc,Top1 poison/Top2α catalytic inhibitor,–,–
Cc1cc(=O)n(C)c2c3c4c(cc12)c(C)cc(=O)n4C(CN1CCCC1)CO3 (stereo not shown) [Compound 20],–,–,–,27 ± 1,17 ± 4,–,–,only ETP treatment resulted in the accumulation of Top2cc,dose-dependent decrease in ETP-induced Top2cc,"neither 6DNM-NH3 nor 6DNM-Pyr, leads to the accumulation of Top1cc",dual Top1/Top2α catalytic inhibitors,1,0.5
